# Source: ChEMBL document CHEMBL5120787, “Selaginellin Inhibits Melanogenesis via the MAPK Signaling Pathway” (J Nat Prod, 2022)
# Activity calls are given as the source filed them. No cut-off for these calls is given here.
# Key:
# B16-F10 [1] = experiment: Anti-melanogenic activity against mouse B16-F10 cells at 200 nM; type: functional, cell-based
# MNT-1 [2] = experiment: Anti-melanogenic activity against human MNT-1 cells cocultured with 24 hrs compound pretreated human fibroblast cells supernatant assessed as decrease in melanin content at 20 uM and measured after 48 hrs by Fontana-Masson staining based microscopic analysis; type: functional, cell-based; conditions: time 72.0 hrs
# MNT-1 [3] = experiment: Anti-melanogenic activity against human MNT-1 cells cocultured with 24 hrs compound pretreated human HaCaT cells supernatant assessed as decrease in melanin content at 20 uM and measured after 48 hrs by Fontana-Masson staining based microscopic analysis; type: functional, cell-based; conditions: time 72.0 hrs
# MNT-1 [4] = experiment: Anti-melanogenic activity against human MNT-1 cells cocultured with 24 hrs compound pretreated human fibroblast cells supernatant assessed as inhibition of LIF mRNA expression at 20 uM and measured after 48 hrs by qRT-PCR analysis; type: functional, cell-based; conditions: time 72.0 hrs
# MNT-1 [5] = experiment: Anti-melanogenic activity against human MNT-1 cells cocultured with 24 hrs compound pretreated human fibroblast cells supernatant assessed as inhibition of SCF mRNA expression at 20 uM and measured after 48 hrs by qRT-PCR analysis; type: functional, cell-based; conditions: time 72.0 hrs
# MNT-1 [6] = experiment: Anti-melanogenic activity against human MNT-1 cells cocultured with 24 hrs compound pretreated human HaCaT cells supernatant assessed as inhibition of LIF mRNA expression at 20 uM and measured after 48 hrs by qRT-PCR analysis; type: functional, cell-based; conditions: time 72.0 hrs
# MNT-1 [7] = experiment: Anti-melanogenic activity against human MNT-1 cells cocultured with 24 hrs compound pretreated human HaCaT cells supernatant assessed as inhibition of SCF mRNA expression at 20 uM and measured after 48 hrs by qRT-PCR analysis; type: functional, cell-based; conditions: time 72.0 hrs
# MNT-1 [8] = experiment: Anti-melanogenic activity against human MNT-1 cells cocultured with 24 hrs compound pretreated human fibroblast cells supernatant assessed as inhibition of LIF protein expression at 20 uM and measured after 48 hrs by Western blot analysis; type: functional, cell-based; conditions: time 72.0 hrs
# MNT-1 [9] = experiment: Anti-melanogenic activity against human MNT-1 cells cocultured with 24 hrs compound pretreated human fibroblast cells supernatant assessed as inhibition of SCF protein expression at 20 uM and measured after 48 hrs by Western blot analysis; type: functional, cell-based; conditions: time 72.0 hrs
# MNT-1 [10] = experiment: Anti-melanogenic activity against human MNT-1 cells cocultured with 24 hrs compound pretreated human HaCaT cells supernatant assessed as inhibition of LIF protein expression at 20 uM and measured after 48 hrs by Western blot analysis; type: functional, cell-based; conditions: time 72.0 hrs
# MNT-1 [11] = experiment: Anti-melanogenic activity against human MNT-1 cells cocultured with 24 hrs compound pretreated human HaCaT cells supernatant assessed as inhibition of SCF protein expression at 20 uM and measured after 48 hrs by Western blot analysis; type: functional, cell-based; conditions: time 72.0 hrs
# B16-F10 [12] = experiment: Cytotoxicity against mouse B16-F10 cells assessed as reduction in cell viability upto 10 uM measured after 48 to 72 hrs by MTT assay; type: toxicity, cell-based; conditions: b16-f10, 10 µM, time 48-72 hrs
# Fibroblast [13] = experiment: Cytotoxicity against human Fibroblast assessed as reduction in cell viability upto 10 uM measured after 48 to 72 hrs by MTT assay; type: toxicity, cell-based; conditions: time 48-72 hrs
# HaCaT [14] = experiment: Cytotoxicity against human HaCaT cells assessed as reduction in cell viability upto 10 uM measured after 48 to 72 hrs by MTT assay; type: toxicity, cell-based; conditions: time 48-72 hrs
# MNT-1 [15] = experiment: Cytotoxicity against human MNT-1 cells assessed as reduction in cell viability upto 10 uM measured after 48 to 72 hrs by MTT assay; type: toxicity, cell-based; conditions: mnt-1, 10 µM, time 48-72 hrs
# [16] = Cytotoxicity against mouse Melan-a cells assessed as reduction in cell viability upto 10 uM measured after 48 to 72 hrs by MTT assay; type: toxicity, cell-based; conditions: time 48-72 hrs
# B16-F10 [17] = experiment: Anti-melanogenic activity against mouse B16-F10 cells assessed as decrease in melanin content at 25 to 100 nM incubated for 48 hrs by Fontana-Masson staining based inverted microscopic analysis; type: functional, cell-based; conditions: dose 25-100 nM
# B16-F10 [18] = experiment: Anti-melanogenic activity against mouse B16-F10 cells assessed as decrease in […] at 25 to 100 nM incubated for 48 hrs by RBFP based fluorescence microscope analysis; type: functional, cell-based; conditions: dose 25-100 nM
# B16-F10 [19] = experiment: Anti-melanogenic activity against mouse B16-F10 cells assessed as decrease in […] at 25 to 100 nM incubated for 48 hrs; type: functional, cell-based; conditions: dose 25-100 nM
# Mushroom tyrosinase = Mushroom tyrosinase (Agaricus bisporus, UniProt O42713+Q00024+C7FF04+C7FF05); experiment: Inhibition of mushroom tyrosinase using L-DOPA as substrate preincubated with substrate for 10 mins followed by addition of enzyme and measured for 10 mins
# B16-F10 [20] = experiment: Anti-melanogenic activity against mouse B16-F10 cells at 50 nM; type: functional, cell-based
# B16-F10 [21] = experiment: Anti-melanogenic activity against mouse B16-F10 cells assessed as decrease in MITF protein level at 25 to 100 nM measured after 48 hrs by Western blot analysis; type: functional, cell-based; conditions: dose 25-100 nM
# B16-F10 [22] = experiment: Anti-melanogenic activity against mouse B16-F10 cells assessed as decrease in TYR protein level at 25 to 100 nM measured after 48 hrs by Western blot analysis; type: functional, cell-based; conditions: dose 25-100 nM
# B16-F10 [23] = experiment: Anti-melanogenic activity against mouse B16-F10 cells assessed as decrease in TRP1 protein level at 25 to 100 nM measured after 48 hrs by Western blot analysis; type: functional, cell-based; conditions: dose 25-100 nM
# B16-F10 [24] = experiment: Anti-melanogenic activity against mouse B16-F10 cells assessed as decrease in TRP2 protein level at 25 to 100 nM measured after 48 hrs by Western blot analysis; type: functional, cell-based; conditions: dose 25-100 nM
# B16-F10 [25] = experiment: Anti-melanogenic activity against mouse B16-F10 cells assessed as decrease in RAB27A protein level at 25 to 100 nM measured after 48 hrs by Western blot analysis; type: functional, cell-based; conditions: dose 25-100 nM
# Melan-a [26] = experiment: Anti-melanogenic activity against mouse Melan-a cells assessed as decrease in alpha-MSH-induced Tyr activity at 0.01 to 10 uM incubated for 48 hrs; type: functional, cell-based; conditions: dose 0.01-10 µM
# Melan-a [27] = experiment: Anti-melanogenic activity against mouse Melan-a cells assessed as decrease in alpha-MSH-induced melanin content at 0.01 to 10 uM incubated for 48 hrs by Fontana-Masson staining based inverted microscopic analysis; type: functional, cell-based; conditions: dose 0.01-10 µM
# Melan-a [28] = experiment: Anti-melanogenic activity against mouse Melan-a cells assessed as alpha-MSH-induced decrease in Tyr activity at 0.01 to 10 uM incubated for 48 hrs by RBFP based fluorescence microscope analysis; type: functional, cell-based; conditions: dose 0.01-10 µM
# B16-F10 [29] = experiment: Inhibition of MAPK signaling pathway in mouse B16-F10 cells assessed as decrease in phosphorylated ERK at 25 to 100 nM for 48 hrs by Western blot analysis; type: cell-based; conditions: dose 25-100 nM
# B16-F10 [30] = experiment: Inhibition of MAPK signaling pathway in mouse B16-F10 cells assessed as decrease in phosphorylated JNK at 25 to 100 nM for 48 hrs by Western blot analysis; type: cell-based; conditions: dose 25-100 nM
# B16-F10 [31] = experiment: Inhibition of MAPK signaling pathway in mouse B16-F10 cells assessed as decrease in phosphorylated p38 at 25 to 100 nM for 48 hrs by Western blot analysis; type: cell-based; conditions: dose 25-100 nM
# MNT-1 [32] = experiment: Anti-melanogenic activity against UVB-induced human MNT-1 cells cocultured with 24 hrs human fibroblast cells supernatant assessed as decrease in melanin content at 10 uM incubated for 48 hrs by Fontana-Masson staining based microscopic analysis; type: functional, cell-based; conditions: time 72.0 hrs
# MNT-1 [33] = experiment: Anti-melanogenic activity against UVB-induced human MNT-1 cells cocultured with 24 hrs human HaCaT cells supernatant assessed as decrease in melanin content at 10 uM incubated for 48 hrs by Fontana-Masson staining based microscopic analysis; type: functional, cell-based; conditions: time 72.0 hrs
# HaCaT [34] = experiment: Anti-melanogenic activity against UVB-induced human HaCaT cells assessed as inhibition of SCF mRNA expression at 10 uM incubated for 24 hrs by qRT-PCR analysis; type: functional, cell-based
# HaCaT [35] = experiment: Anti-melanogenic activity against UVB-induced human HaCaT cells assessed as inhibition of LIF mRNA expression at 10 uM incubated for 24 hrs by qRT-PCR analysis; type: functional, cell-based
# Fibroblast [36] = experiment: Anti-melanogenic activity against UVB-induced human fibroblast cells assessed as inhibition of SCF mRNA expression at 10 uM incubated for 24 hrs by qRT-PCR analysis; type: functional, cell-based
# Fibroblast [37] = experiment: Anti-melanogenic activity against UVB-induced human fibroblast cells assessed as inhibition of LIF mRNA expression at 10 uM incubated for 24 hrs by qRT-PCR analysis; type: functional, cell-based
# HaCaT [38] = experiment: Anti-melanogenic activity against UVB-induced human HaCaT cells assessed as decrease in SCF protein level at 10 uM incubated for 24 hrs by Western blot analysis; type: functional, cell-based
# HaCaT [39] = experiment: Anti-melanogenic activity against UVB-induced human HaCaT cells assessed as decrease in LIF protein level at 10 uM incubated for 24 hrs by Western blot analysis; type: functional, cell-based
# Fibroblast [40] = experiment: Anti-melanogenic activity against UVB-induced human fibroblast cells assessed as decrease in SCF protein level at 10 uM incubated for 24 hrs by Western blot analysis; type: functional, cell-based
# Fibroblast [41] = experiment: Anti-melanogenic activity against UVB-induced human fibroblast cells assessed as decrease in LIF protein level at 10 uM incubated for 24 hrs by Western blot analysis; type: functional, cell-based
# MNT-1 [42] = experiment: Anti-melanogenic activity against human MNT-1 cells assessed as decrease in melanin content at 10 uM incubated for 48 hrs by Fontana-Masson staining based microscopic analysis; type: functional, cell-based
# Danio rerio = organism: Danio rerio; experiment: Inhibition of melanogenesis in zebra fish embryos assessed as decrease in melanin granule density at 10 to 50 uM measured upto 6 days by inverted microscope analysis; type: functional; conditions: dose 10-50 µM, time <= 6.0 day
structure (smiles),measurement,setting,value
O=c1cc(CO)occ1O,Activity,B16-F10 [1],Active
COc1ccc(-c2cc(=O)c3c(OC)c(OC)c(OC)c(OC)c3o2)cc1OC,Activity,MNT-1 [2],Active
same,Activity,MNT-1 [3],Active
same,Activity,MNT-1 [4],Active
same,Activity,MNT-1 [5],Active
same,Activity,MNT-1 [6],Active
same,Activity,MNT-1 [7],Active
same,Activity,MNT-1 [8],Active
same,Activity,MNT-1 [9],Active
same,Activity,MNT-1 [10],Active
same,Activity,MNT-1 [11],Active
O=C1C=CC(=C(c2ccc(O)cc2)c2c(-c3ccc(O)cc3)ccc(CO)c2C#Cc2ccc(O)cc2)C=C1,Activity,B16-F10 [12],Non-Toxic
same,Activity,Fibroblast [13],Non-Toxic
same,Activity,HaCaT [14],Non-Toxic
same,Activity,MNT-1 [15],Non-Toxic
same,Activity,[16],Non-Toxic
same,Activity,B16-F10 [17],Active
same,Activity,B16-F10 [18],Active
same,Activity,B16-F10 [19],Active
same,IC50,Mushroom tyrosinase,9.24 µM
same,Activity,B16-F10 [20],Active
same,Activity,B16-F10 [21],Active
same,Activity,B16-F10 [22],Active
same,Activity,B16-F10 [23],Active
same,Activity,B16-F10 [24],Active
same,Activity,B16-F10 [25],Active
same,Activity,Melan-a [26],Active
same,Activity,Melan-a [27],Active
same,Activity,Melan-a [28],Active
same,inhibition,B16-F10 [29],Active
same,inhibition,B16-F10 [30],Active
same,inhibition,B16-F10 [31],Active
same,Activity,MNT-1 [32],Active
same,Activity,MNT-1 [33],Active
same,Activity,HaCaT [34],Active
same,Activity,HaCaT [35],Active
same,Activity,Fibroblast [36],Active
same,Activity,Fibroblast [37],Active
same,Activity,HaCaT [38],Active
same,Activity,HaCaT [39],Active
same,Activity,Fibroblast [40],Active
same,Activity,Fibroblast [41],Active
same,Activity,MNT-1 [42],Active
NC(=S)Nc1ccccc1,inhibition,Danio rerio,Active
